Assay results reported in US20260263485A1, “AMINOSTEROL COMPOUNDS, AMINOSTEROL-CYCLODEXTRIN FORMULATIONS, AND METHODS OF USING THE SAME” (Enterin, Inc., priority 2022, published 2026).
Several values for one entry are separate records, joined by “and”; a condition that tells them apart may be missing. Equal entries are not always repeated. Where two headings read alike, the source gives them in different places.

Columns and labels:
[1] = Plasma pharmacokinetics of ENT-03S cyclodextrin formulation after subcutaneous injection; type: in vivo, rat; conditions: male, Sprague-Dawley, rat, plasma, sc, 10 mg/kg, 20% beta-cyclodextrin formulation, SC Dose 10 mg/kg, male SD rats, plasma, mean
Procedure: In this example, ENT-03S was formulated with unmodified beta-cyclodextrin at a concentration of 25 mg/ml ENT-03, and 20% beta-cyclodextrin, pH 7.5, buffered with phosphate.
Male Sprague-Dawley rats were administered the ENT-03-cyclodextrin formulation subcutaneous at a dose of 10 mg/kg. Blood samples were drawn from the tail vein at various times, the concentrations of ENT-03 determined, and PK parameters determined.

[2] = Identification of metabolites of ENT-03S in rat plasma and urine samples (UPLC-MS/MS); type: in vivo
Procedure: An equal number of rat urine (50 μL) were taken from different animals at various time points following administration of ENT-03S. For plasma samples, the Hamilton pooling method was used.
Study design: An equal number of rat urine (50 μL) samples were taken from different animals at various time points from study No.: PH-DMPK-ETR-21-001 following administration of ENT-03S. For plasma samples, the Hamilton pooling method was used.
The samples were then analysed using UPLC-MS/MS.
Compound dependent parameters were optimized by ENT-03S.

[3] = Subcutaneous injection into a human subject (local tolerability); type: in vivo
Procedure: […] The contents of the syringe were injected subcutaneously in the abdominal area of a human subject creating a visible swelling.

[4] = male, Sprague-Dawley, in vivo, sc, 10 mg/kg
[5] = Plasma pharmacokinetics of aqueous ENT-03S solution without cyclodextrin after subcutaneous injection; type: in vivo, rat; conditions: 2 mg/ml, 10 mg/kg SC, male SD rats
Procedure: The benefits provided by the aminosterol-cyclodextrin formulation disclosed herein can be appreciated by comparing the pharmacokinetics of an aqueous solution of ENT-03S in the absence of cyclodextrin at a concentration of ENT-03S of 2 mg/ml at […].
(§1) The dose chosen was the maximum ENT-03S concentration that could be delivered to the rat without causing visible local tissue necrosis.
The experiment was conducted in male Sprague-Dawley rats following the same protocol as above. The formulation was administered subcutaneously at a dose of 10 mg/kg. The data obtained are shown below in Tables 19 and 20 and FIG. 35.

[6] = Visible local tissue necrosis on subcutaneous delivery to the rat; type: in vivo; conditions: aqueous solution in the absence of cyclodextrin, pH 74
From the text: as §1

[7] = 0. 1l of aqueous ENT-03S 2 mg/ml, pH 74, no cyclodextrin

C[C@H](CCC[C@H](C)C(=O)O)[C@H]1CCC2C3C(CC[C@@]21C)[C@@]1(C)CC[C@H](NCCCNCCCCNCCCN)C[C@@H]1C[C@H]3O (stereo partly drawn) [ENT-03S, (2S,6R)-6-((3S,5R,7R,10S,13R,17R)-3-((3-((4-((3-aminopropyl)amino)butyl)amino)propyl)amino)-7-hydroxy-10,13-dimethylhexadecahydro-1 H-cyclopenta[a]phenanthren-17-yl)-2-methylheptanoic acid]
AUC(0-t) ([1]; read-out: AUClast Mean): 824 µg·h/mL | AUC ([1]; read-out: AUClnf Mean): 920 µg·h/mL | Cmax ([1]; read-out: Cmax Mean): 32400 ng/mL | half-life ([1]; read-out: T1/2 Mean (converted)): 22.4 h | Metabolite peak area percentages Rat Plasma Male ([2]; pooled male SD rat plasma 0.25-24 h after 10 mg/kg ENT-03S SC, relative XIC peak area): 91.29% | Metabolite peak area Rat Plasma Male ([2]; pooled male SD rat plasma after 10 mg/kg ENT-03S SC, XIC peak area): 6.03E+08 | Metabolite peak area percentages Rat Urine Male ([2]; pooled male SD rat urine 0-24 h after 10 mg/kg ENT-03S SC, relative XIC peak area, “—”: not observed): 71.94% | Metabolite peak area Rat Urine Male ([2]; pooled male SD rat urine after 10 mg/kg ENT-03S SC, XIC peak area, “—”: not observed): 1.62E+06 | local swelling, redness, and warmth [3, 7]: lasted for several days | pain on injection [3, 7]: severe pain within seconds that persisted for several hours | disappearance of swelling at injection site ([3]; 1 ml of Example 4 formulation (ENT-03S 50 mg/ml, 25% 2-hydroxypropyl β-cyclodextrin), abdominal area): Over the course of an hour, the swelling disappeared | sensation on subcutaneous injection ([3]; 1 ml of Example 4 formulation (ENT-03S 50 mg/ml, 25% 2-hydroxypropyl β-cyclodextrin, phosphate, pH 7.4-7.6), abdominal area): mild stinging sensation was noted, which disappeared within a few minutes | Metabolite peak area Rat Bile [4]: 1.70E+07 | Metabolite peak area percentages Rat Bile [4]: 13.77% | Concentration (ng/ml) Rat 1-3 ([5]; 0.25 h, individual rats, 10 mg/kg): 1150 ng/mL and 702 ng/mL and 1930 ng/mL | Concentration (ng/ml) Rat 1-3 ([5]; 0.5 h, individual rats, 10 mg/kg): 2300 ng/mL and 1490 ng/mL and 3220 ng/mL | Concentration (ng/ml) Rat 1-3 ([5]; 1 h, individual rats, 10 mg/kg): 4910 ng/mL and 2590 ng/mL and 5570 ng/mL | Concentration (ng/ml) Rat 1-3 ([5]; 2 h, individual rats, 10 mg/kg): 5900 ng/mL and 8620 ng/mL | Concentration (ng/ml) Rat 1-3 ([5]; 4 h, individual rats, 10 mg/kg): 10800 ng/mL and 16100 ng/mL | Concentration (ng/ml) Rat 1-3 ([5]; 8 h, individual rats, 10 mg/kg): 19600 ng/mL and 24800 ng/mL | Concentration (ng/ml) Rat 1-3 ([5]; 24 h, individual rats, 10 mg/kg): 40000 ng/mL and 54300 ng/mL | AUClast ([5]; individual rats, 10 mg/kg): 559.927 µg·h/mL and 749.498 µg·h/mL | AUClast/D ([5]; individual rats, 10 mg/kg): 67500 kg·ng·h/mL/mg and 56000 kg·ng·h/mL/mg and 75000 kg·ng·h/mL/mg | Cmax ([5]; individual rats, 10 mg/kg): 40000 ng/mL and 54300 ng/mL | AUClast/D Mean ([5]; mean): 66200 kg·ng·h/mL/mg | concentration at 0.25 h ([5]; male, Sprague-Dawley, rat, plasma, sc, 10 mg/kg, 0.25 h, mean): 1260 ng/mL | concentration at 0.5 h ([5]; male, Sprague-Dawley, rat, plasma, sc, 10 mg/kg, 0.5 h, mean): 2340 ng/mL | concentration at 1 h ([5]; male, Sprague-Dawley, rat, plasma, sc, 10 mg/kg, 1 h, mean): 4360 ng/mL | concentration at 2 h ([5]; male, Sprague-Dawley, rat, plasma, sc, 10 mg/kg, 2 h, individual rats, read-out: Concentration (ng/ml) Rat 1-3): 8380 ng/mL | concentration at 2 h ([5]; male, Sprague-Dawley, rat, plasma, sc, 10 mg/kg, 2 h, mean, read-out: Concentration Mean): 7630 ng/mL | concentration at 4 h ([5]; male, Sprague-Dawley, rat, plasma, sc, 10 mg/kg, 4 h, individual rats, read-out: Concentration (ng/ml) Rat 1-3): 14100 ng/mL | concentration at 4 h ([5]; male, Sprague-Dawley, rat, plasma, sc, 10 mg/kg, 4 h, mean, read-out: Concentration Mean): 13700 ng/mL | concentration at 8 h ([5]; male, Sprague-Dawley, rat, plasma, sc, 10 mg/kg, 8 h, individual rats, read-out: Concentration (ng/ml) Rat 1-3): 26900 ng/mL | concentration at 8 h ([5]; male, Sprague-Dawley, rat, plasma, sc, 10 mg/kg, 8 h, mean, read-out: Concentration Mean): 23800 ng/mL | concentration at 24 h ([5]; male, Sprague-Dawley, rat, plasma, sc, 10 mg/kg, 24 h, individual rats, read-out: Concentration (ng/ml) Rat 1-3): 43300 ng/mL | concentration at 24 h ([5]; male, Sprague-Dawley, rat, plasma, sc, 10 mg/kg, 24 h, mean, read-out: Concentration Mean): 45900 ng/mL | Tmax ([5]; male, Sprague-Dawley, rat, plasma, sc, 10 mg/kg, individual rats): 24 h | AUC(0-t) ([5]; male, Sprague-Dawley, rat, plasma, sc, 10 mg/kg, individual rats, read-out: AUClast): 675 µg·h/mL | Cmax ([5]; male, Sprague-Dawley, rat, plasma, sc, 10 mg/kg, individual rats, read-out: Cmax): 43300 ng/mL | AUC(0-t) ([5]; male, Sprague-Dawley, rat, plasma, sc, 10 mg/kg, mean, read-out: AUClast Mean): 662 µg·h/mL | Cmax ([5]; male, Sprague-Dawley, rat, plasma, sc, 10 mg/kg, mean, read-out: Cmax Mean): 45900 ng/mL | maximum ENT-03S concentration that could be delivered to the rat without causing visible local tissue necrosis [6]: 2 mg/mL
